# Reference: ChEMBL document CHEMBL1151009, “Synthesis and pharmacological evaluation of combined Thromboxane receptor antagonists/thromboxane synthase inhibitors: Pyridine-containing amino-prostanoids” (Bioorg Med Chem Lett, 1991)
# Biological target: T1, Thromboxane-A synthase (Homo sapiens, UniProt P24557)
# T1 sequence (P24557 whole entry): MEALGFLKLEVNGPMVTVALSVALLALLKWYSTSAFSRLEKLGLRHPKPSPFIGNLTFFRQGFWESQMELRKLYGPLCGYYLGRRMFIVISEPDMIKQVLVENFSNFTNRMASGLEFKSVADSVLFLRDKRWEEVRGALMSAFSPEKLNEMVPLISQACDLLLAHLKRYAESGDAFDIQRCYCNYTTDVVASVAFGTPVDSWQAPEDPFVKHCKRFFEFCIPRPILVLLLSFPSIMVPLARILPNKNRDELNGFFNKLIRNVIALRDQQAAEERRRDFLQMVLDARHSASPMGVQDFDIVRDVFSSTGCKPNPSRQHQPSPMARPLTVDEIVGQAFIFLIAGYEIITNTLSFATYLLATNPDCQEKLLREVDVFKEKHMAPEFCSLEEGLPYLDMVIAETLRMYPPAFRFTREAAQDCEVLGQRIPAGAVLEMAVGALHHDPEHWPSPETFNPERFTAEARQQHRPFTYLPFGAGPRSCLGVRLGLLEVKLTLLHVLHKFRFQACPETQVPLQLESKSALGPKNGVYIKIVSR
# Assay: In vitro TXA2 synthase antagonism through inhibition of collagen induced thromboxane-A2 production in human citreated whole blood
# Type: functional, tissue-based
# Conditions: not given
row,SMILES,IC50
1,CCCCc1ccncc1-c1ccc(CO[C@@H]2CC[C@H](N3CCCCCC3)[C@H]2OC/C=C\CCC(=O)O)cc1,100 nM
2,O=C(O)CC/C=C\CO[C@H]1[C@H](OCc2ccc(-c3cncc(CO)c3)cc2)CC[C@@H]1N1CCCCCC1,> 10000 nM
3,CCCc1ccncc1-c1ccc(CO[C@@H]2CC[C@H](N3CCCCCC3)[C@H]2OC/C=C\CCC(=O)O)cc1,100 nM
4,O=C(O)CC/C=C\CO[C@H]1[C@H](OCc2ccc(-c3cnccc3CO)cc2)CC[C@@H]1N1CCCCCC1,1580 nM
5,Cc1cnccc1-c1ccc(CO[C@@H]2CC[C@H](N3CCCCCC3)[C@H]2OC/C=C\CCC(=O)O)cc1,1580 nM
6,O=C(O)CC/C=C\CO[C@H]1[C@H](OCc2ccc(-c3cnccc3CCO)cc2)CC[C@@H]1N1CCCCCC1,> 10000 nM
7,O=C(O)CC/C=C\CO[C@H]1[C@H](OCc2ccc(-c3cccnc3CO)cc2)CC[C@@H]1N1CCCCCC1,> 10000 nM
8,O=C(O)CC/C=C\CO[C@H]1[C@H](OCc2ccc(-c3ccncc3)cc2)CC[C@@H]1N1CCCCCC1,631 nM
9,CC(C)(C)c1ccncc1-c1ccc(CO[C@@H]2CC[C@H](N3CCCCCC3)[C@H]2OC/C=C\CCC(=O)O)cc1,> 10000 nM
10,Cc1ccncc1-c1ccc(CO[C@@H]2CC[C@H](N3CCCCCC3)[C@H]2OC/C=C\CCC(=O)O)cc1,100 nM
11,CCc1cnccc1-c1ccc(CO[C@@H]2CC[C@H](N3CCCCCC3)[C@H]2OC/C=C\CCC(=O)O)cc1,398 nM
12,CCc1ccncc1-c1ccc(CO[C@@H]2CC[C@H](N3CCCCCC3)[C@H]2OC/C=C\CCC(=O)O)cc1,2510 nM
13,O=C(O)CC/C=C\CO[C@H]1[C@H](OCc2ccc(-c3cccnc3)cc2)CC[C@@H]1N1CCCCCC1,631 nM
14,O=C(O)CCCCO/N=C(/c1cccnc1)c1cccc(C(F)(F)F)c1 [RIDOGREL],31.6 nM

# Biological target: T2, Thromboxane A2 receptor (Homo sapiens, UniProt P21731)
# T2 sequence (P21731 whole entry): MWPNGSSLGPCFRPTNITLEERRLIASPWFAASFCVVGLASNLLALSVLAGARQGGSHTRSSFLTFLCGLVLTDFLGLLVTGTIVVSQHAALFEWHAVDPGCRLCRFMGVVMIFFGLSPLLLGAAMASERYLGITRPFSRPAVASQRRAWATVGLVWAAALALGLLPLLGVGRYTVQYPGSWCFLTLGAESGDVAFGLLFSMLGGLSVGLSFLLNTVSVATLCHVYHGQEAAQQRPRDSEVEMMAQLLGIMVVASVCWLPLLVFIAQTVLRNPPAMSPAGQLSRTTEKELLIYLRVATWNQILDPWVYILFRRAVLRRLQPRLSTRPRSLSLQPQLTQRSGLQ
# Assay: In vitro thromboxane A2 receptor antagonism through inhibition of U-46619-induced platelet aggregation in human whole blood.
# Type: functional, tissue-based
# Conditions: read-out: pA2 (converted)
row,SMILES,Kb
1,CCCCc1ccncc1-c1ccc(CO[C@@H]2CC[C@H](N3CCCCCC3)[C@H]2OC/C=C\CCC(=O)O)cc1,3.98 nM
2,O=C(O)CC/C=C\CO[C@H]1[C@H](OCc2ccc(-c3cncc(CO)c3)cc2)CC[C@@H]1N1CCCCCC1,6.31 nM
3,CCCc1ccncc1-c1ccc(CO[C@@H]2CC[C@H](N3CCCCCC3)[C@H]2OC/C=C\CCC(=O)O)cc1,2.51 nM
4,O=C(O)CC/C=C\CO[C@H]1[C@H](OCc2ccc(-c3cnccc3CO)cc2)CC[C@@H]1N1CCCCCC1,3.16 nM
5,Cc1cnccc1-c1ccc(CO[C@@H]2CC[C@H](N3CCCCCC3)[C@H]2OC/C=C\CCC(=O)O)cc1,6.31 nM
6,O=C(O)CC/C=C\CO[C@H]1[C@H](OCc2ccc(-c3cnccc3CCO)cc2)CC[C@@H]1N1CCCCCC1,3.16 nM
7,O=C(O)CC/C=C\CO[C@H]1[C@H](OCc2ccc(-c3ccncc3CO)cc2)CC[C@@H]1N1CCCCCC1,3.16 nM
8,O=C(O)CC/C=C\CO[C@H]1[C@H](OCc2ccc(-c3cccnc3CO)cc2)CC[C@@H]1N1CCCCCC1,3.16 nM
9,O=C(O)CC/C=C\CO[C@H]1[C@H](OCc2ccc(-c3ccncc3)cc2)CC[C@@H]1N1CCCCCC1,10 nM
10,CC(C)(C)c1ccncc1-c1ccc(CO[C@@H]2CC[C@H](N3CCCCCC3)[C@H]2OC/C=C\CCC(=O)O)cc1,3.16 nM
11,Cc1ccncc1-c1ccc(CO[C@@H]2CC[C@H](N3CCCCCC3)[C@H]2OC/C=C\CCC(=O)O)cc1,2.51 nM
12,CCc1cnccc1-c1ccc(CO[C@@H]2CC[C@H](N3CCCCCC3)[C@H]2OC/C=C\CCC(=O)O)cc1,6.31 nM
13,CCc1ccncc1-c1ccc(CO[C@@H]2CC[C@H](N3CCCCCC3)[C@H]2OC/C=C\CCC(=O)O)cc1,1 nM
14,O=C(O)CC/C=C\CO[C@H]1[C@H](OCc2ccc(-c3cccnc3)cc2)CC[C@@H]1N1CCCCCC1,12.6 nM
15,O=C(O)CCCC/C=C(\c1ccccc1)c1cccnc1 [(E)-ISBOGREL],15800 nM
16,O=C(O)CCCCO/N=C(/c1cccnc1)c1cccc(C(F)(F)F)c1 [RIDOGREL],3980 nM

# Biological target: T3, Thromboxane A2 receptor (Rattus norvegicus, UniProt P34978)
# T3 sequence (P34978 whole entry): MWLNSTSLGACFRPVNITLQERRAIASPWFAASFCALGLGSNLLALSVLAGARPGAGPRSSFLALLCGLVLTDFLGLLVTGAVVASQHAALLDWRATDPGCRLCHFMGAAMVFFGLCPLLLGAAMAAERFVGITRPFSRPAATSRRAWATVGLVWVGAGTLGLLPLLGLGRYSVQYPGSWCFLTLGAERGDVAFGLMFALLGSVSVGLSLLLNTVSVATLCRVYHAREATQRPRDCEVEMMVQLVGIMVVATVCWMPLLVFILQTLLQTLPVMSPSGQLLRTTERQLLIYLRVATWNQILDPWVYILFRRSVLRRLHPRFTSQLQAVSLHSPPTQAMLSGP
# Assay: In vitro thromboxane A2 receptor antagonism through inhibition of U-46619-induced contraction of rat isolated thoracic aortic strip
# Type: functional
# Conditions: read-out: pA2 (converted)
row,SMILES,Kb
1,CCCCc1ccncc1-c1ccc(CO[C@@H]2CC[C@H](N3CCCCCC3)[C@H]2OC/C=C\CCC(=O)O)cc1,10 nM
2,O=C(O)CC/C=C\CO[C@H]1[C@H](OCc2ccc(-c3cncc(CO)c3)cc2)CC[C@@H]1N1CCCCCC1,25.1 nM
3,CCCc1ccncc1-c1ccc(CO[C@@H]2CC[C@H](N3CCCCCC3)[C@H]2OC/C=C\CCC(=O)O)cc1,31.6 nM
4,O=C(O)CC/C=C\CO[C@H]1[C@H](OCc2ccc(-c3cnccc3CO)cc2)CC[C@@H]1N1CCCCCC1,12.6 nM
5,Cc1cnccc1-c1ccc(CO[C@@H]2CC[C@H](N3CCCCCC3)[C@H]2OC/C=C\CCC(=O)O)cc1,20 nM
6,O=C(O)CC/C=C\CO[C@H]1[C@H](OCc2ccc(-c3cnccc3CCO)cc2)CC[C@@H]1N1CCCCCC1,3.16 nM
7,O=C(O)CC/C=C\CO[C@H]1[C@H](OCc2ccc(-c3ccncc3CO)cc2)CC[C@@H]1N1CCCCCC1,15.8 nM
8,O=C(O)CC/C=C\CO[C@H]1[C@H](OCc2ccc(-c3cccnc3CO)cc2)CC[C@@H]1N1CCCCCC1,3.16 nM
9,O=C(O)CC/C=C\CO[C@H]1[C@H](OCc2ccc(-c3ccncc3)cc2)CC[C@@H]1N1CCCCCC1,79.4 nM
10,CC(C)(C)c1ccncc1-c1ccc(CO[C@@H]2CC[C@H](N3CCCCCC3)[C@H]2OC/C=C\CCC(=O)O)cc1,3.16 nM
11,Cc1ccncc1-c1ccc(CO[C@@H]2CC[C@H](N3CCCCCC3)[C@H]2OC/C=C\CCC(=O)O)cc1,31.6 nM
12,CCc1cnccc1-c1ccc(CO[C@@H]2CC[C@H](N3CCCCCC3)[C@H]2OC/C=C\CCC(=O)O)cc1,15.8 nM
13,CCc1ccncc1-c1ccc(CO[C@@H]2CC[C@H](N3CCCCCC3)[C@H]2OC/C=C\CCC(=O)O)cc1,10 nM
14,O=C(O)CC/C=C\CO[C@H]1[C@H](OCc2ccc(-c3cccnc3)cc2)CC[C@@H]1N1CCCCCC1,39.8 nM
15,O=C(O)CCCC/C=C(\c1ccccc1)c1cccnc1 [(E)-ISBOGREL],6310 nM
16,O=C(O)CCCCO/N=C(/c1cccnc1)c1cccc(C(F)(F)F)c1 [RIDOGREL],1260 nM
